Measurements as given in patent publication US8975259B2, “Compositions and methods for inhibiting G protein signaling” (University of Rochester, priority 2007, dated 2015).
“Also recorded” adds a separate entry of the source. Read-outs that look alike come from different tables or passages of the source. No end group written: not given here.

Assays:
[1] = system: fMLP-dependent Ca2+ release in differentiated HL60 cells; assay: fMLP-dependent Ca2+ release in fura-2 loaded DMSO-differentiated HL60 cells; format: cell-based, human; conditions: 10 μM compound, 250 nM fMLP; result in words
Experimental: (§1) Cells were pretreated with DMSO or 10 μM compounds for 5 min prior to stimulation with 250 nM fMLP. […] Normalized peak Ca^2+ responses were pooled from three independent experiments each (mean±SEM). Cells were pretreated with DMSO (▪) or compounds (▴) for 5 min prior to stimulation. FIG. 5C is the same as A except 10 μM M201 was tested. […] Differentiated HL60 cells were treated with 10 μM compound prior to stimulation with 250 nM fMLP. Translocation of endogenous GRK2 was determined by Western blotting with a GRK2 antibody and quantitative chemiluminescence. Data are mean±SEM from 5 experiments, * P<0.05, **P<0.01 ANOVA. […] Differentiated HL60 cells stably over-expressing GFP-PHAkt were treated with 10 μM compound prior to stimulation with 100 nM fMLP. Translocation of GFP-PHAkt to the membrane was determined by Western blotting with an anti-GFP antibody and quantitative chemiluminescence. Data are mean±SEM from 4 experiments. *** P<0.001 ANOVA. […] Differentiated HL60 cells were pretreated with 10 μM of compound prior to stimulation with 1 μM fMLP for 5 min. Levels of phosphorylated and total ERK were determined by Western blotting.
Ca^2+ fluxes were measured using two 35 mL cultures of differentiated HL-60 neutrophil cultures (0.2×10^6 cells/mL). Cells were cultured for three days with in DMSO
(1.2%), washed in HSS and resuspended in 2 mL HBSS at a concentration of 7×10^s cells/mL. Addition of DMSO to the growth medium induces differentiation of these cells into morphologically and functionally mature neutrophils
(Collins, et al. (1978) Proc. Natl. Acad. Sci. USA 75:2458; Collins, et al. (1979) J. Exp. Med. 149:969). Neutrophils were preloaded with fura-2 (1 μM), a fluorescent Ca^2+-sensitive indicator (Suh, et al. (1996) J. Biol. Chem. 271:32753), for 45 minutes, washed with HBSS and resuspended in 2 mL of indicator-free HBSS. An 140 μL aliquote of cells was added to a total of 2 mL HBSS. Fluorescence ratios were taken by dual excitation at 340 and 380 nm and emission at 510 nm. After a stable baseline was established, either DMSO or NSC119910 was added and incubated for 5 minutes. […]

[2] = system: ERK1 and ERK2 activation in differentiated HL60 cells; assay: fMLP-induced ERK1 and ERK2 activation in differentiated HL60 cells; format: cell-based, human; conditions: 10 μM compound, 1 μM fMLP; result in words
Experimental: as §1

Gβ1γ2 = Gβ1γ2 (UniProt P54311+P63212); assay: Competition phage ELISA: inhibition of SIGK-phage binding to immobilized biotinylated Gβ1γ2; design: made in house; host or cells: Sf9 insect cells (baculovirus; co-expressed with BirA and (His)6-Gαi1, from which βγ was eluted); species or system rat
Experimental: Phage ELISA assays used to assess peptide binding to wild-type and mutant b-βγ were performed according to standard methods (Smrcka and Scott (2002) Methods Enzymol. 344:557-76). Briefly, 1 μg streptavidin was immobilized in the well of a […] overnight at 4° C. The wells were blocked with 100 μL of 2% bovine serum albumin (BSA) in Tris-buffered saline (TBS) for 1 hour at 4° C. followed by three washes of IX TBS/0.5% TWEEN®. […] The wells were washed, followed by the addition of IxIO^6 to IxIO^10 phage particles and incubated at 4° C. for 3 hours. The wells were then washed six times with TBS/0.5% TWEEN® followed by addition of 40 μL of 1:5000 dilution of anti-M13 antibody (Pharmacia, Uppsala, Sweden) and incubated at room temperature for 1 hour. The wells were washed, followed by the addition of 40 μL of (2,2′-Azino-bis (3-ethylbenzthiazoline)-6-sulfonic acid (ABTS) and the colorimetric reaction was monitored at 405 nm. Nonspecific binding was subtracted for each reading.
A phage ELISA assay was used to determine whether small molecules identified in the computational screen could interact with the Gβy protein interaction surface. […] The screen was based on a reduction in the optical density (OD) of wells containing Gβγ subunits and phage. […] Three background wells contained no βy subunits.
As disclosed herein, biotinylated Gβy subunits were immobilized on the surface of a 96-well plate coated with streptavidin, phage displaying Gβγ-binding peptides were subsequently added and binding in the presence and absence of test compounds detected with an anti-phage antibody.
The phage ELISA assay was used to rapidly screen the ability of compounds to bind to the protein interaction “hot spot” based on the method of Scott et. al (Scott et al., 2001). This assay is performed in the presence of detergent (0.5% Tween) to eliminate non-specific compound aggregation artifacts.
Compounds/DMSO and 0.1×10^10 phage were added simultaneously and subsequently incubated for 1 h at room temperature. Plates were then washed with 1× Tris-buffered saline/0.5% Tween 20 and incubated with anti-M13, HRP-conjugated antibody (Amersham, Chalfont St. Giles, Buckinghamshire, UK). Phage binding was determined by monitoring A405 upon addition of 2,2′-azino-bis(3-ethylbenzothiazoline-6-sulfonic acid) (Sigma Aldrich).

PLCβ2 = assay: Gβ1γ2-dependent activation of purified PLCβ2; format: biochemical
Experimental: (§2) Purified PLCβ2 (0.25 ng) was assayed in the presence (▴) or absence (▪) of 100 nM purified Gβ1γ2. […] Assays contained 10 ng of purified p101/p110 PI3Kγ heterodimer with or without 100 nM purified Gβ1γ2. Left panel: (▴) 100 nM Gβ1γ2 or (▪) no βγ. […] M119 or M201 and 25 nM purified GRK2 were added simultaneously to 250 nM biotinylated Gβ1γ2 (bGβ1γ2) immobilized on streptavidin agarose. GRK2 was detected with antibody to GRK2. Data are representative (mean ±SEM, except D) repeated at least three times each. […] 30 nM bGβ1γ2 was incubated with either 30 nM PLCβ2 or PLCβ3 in the presence or absence of M119 or M201 for 16 h at 4° C. before precipitation with avidin agarose and detection with PLCβ2,or Gβ antibodies. […] Same as 4E with PLCβ3.
(§3) The ability of NSC119910 analogs to selectively modulate activation PLC-β2 and -β3 was analyzed. In this assay, PLC-β2 and PLC-β3 were purified and PLC enzymatic activity was measured in the presence or absence of purified βy and in the presence or absence of analog.
(§4) Nevertheless, M119 and M201 were tested in in vitro reconstitution assays of Gβγ-dependent activation of PLCβ2, PLCβ3 and PI3Kγ and binding to GRK2. […] These are only two of multiple diverse compounds identified, indicating potential for multiple modes of Gβγ-dependent target modulation by these small molecules.

PI3Kγ = assay: Gβ1γ2-dependent activation of purified p101/p110 PI3Kγ; format: biochemical; conditions: Table 19, effector IC50; read-out: PI 3-Kg
Experimental: as §2, §4

PLCβ3 = assay: Gβ1γ2-dependent activation of purified PLCβ3; format: biochemical; design: key to PLCb3: NE = No effect; conditions: Table 19, effector IC50
Experimental: as §2, §3, §4

[3] = system: human μ opioid receptor (hMOR-CHO cells); assay: Total inositol phosphate assay in hMOR-CHO cells; format: cell-based
Experimental: Chinese hamster ovary (CHO) cells stably expressing either the human κ (hKOR-CHO), δ (hDOR-CHO)(L. Toll, Stanford Research Institute, Palo Alto, Calif.) or μ (hMOR-CHO)(G. Uhl, National Institute on Drug Abuse, Baltimore, Md.) opioid receptor were used in the experiments. Cells in 6-well plates were labeled by adding 4 μCi of [^3H]inositol for 24 hr in inositol-free F-10 media, without serum. After labeling, LiCl was added directly to the labeling media at a final concentration of 10 mM. Ligands or peptides were added at the same time. The final volume of each well was 1 mL. The plates were put back in to the incubator at 37° C. for 30 min after which time the medium was aspirated and the plates were washed twice with 1× PBS. Ice-cold 50 mM formic acid, 1 mL, was added to the plates which were placed in the cold room at 4° C. for 30 min. After the incubation, the contents of the plates were applied to Dowex AG1-X8 columns and allowed to flow all the way through the column. The columns were washed, twice each, with 50 and 100 mM formic acid, for a total of four washes, followed by elution of the IP-containing fraction with 3 mL of 1.2 M ammonium formate/0.1 M formic acid. The eluted fraction was mixed with Scintisafe scintillation fluid, for high salt, and counted. The data are represented as the fold increase over control in total inositol phospates. All experiments were repeated three times and performed in duplicate. Control cells for each experiment were labeled with [^3H]inositol and LiCl, in the same manner as the treatment groups.

[4] = system: opioid-induced antinociception in mice; assay: 55° C. warm-water tail-flick antinociception; format: in vivo, mouse; conditions: i.c.v., 20 min, 55° C. tail-flick; 95% CL in parentheses
Fαi1GDPβ1γ2 heterotrimer = molecular target: T1, Fαi1GDPβ1γ2 heterotrimer (UniProt P54311+P63212); assay: Dissociation of Fαi1 from preformed Fαi1β1γ2 heterotrimer (flow cytometry); format: binding; conditions: result in words
T1 construct: made in house; host or cells: b-βγ: Sf9 insect cells

[5] = system: carrageenan-induced paw edema in mice; assay: Carrageenan-induced paw edema and neutrophil abundance
Gαi1-Gβ1γ2 interaction = molecular target: T2, Gαi1-Gβ1γ2 interaction (UniProt P54311+P63212); assay: Flow cytometry competition for FITC-Gαi1 binding to immobilized b-Gβ1γ2; conditions: peptides; read-out: IC50 for competition with Gαi binding to Gβ1γ2
T2 construct: made in house; host or cells: b-βγ: Sf9 insect cells
Experimental: (2003) supra; Sarvazyan, et al. (1998) J. Biol. […] Fluorescein-labeled Ga^ (Fan) was prepared in accordance with standard methods (Sarvazyan, et al. (1998) supra). Assays were used to determine peptide effects on Gα-Gβγ interactions included competition and dissociation assays (Ghosh, et al. (2003) supra). […] The bead-associated fluorescence was then recorded in a BD Biosciences […] flow cytometer. Data was corrected for background fluorescence and fit with a sigmoid dose response curve using Graph Pad Prism 4. To measure dissociation of Fan from b-Gβaγ2, 100 pM of Fa^ was incubated with 50 pM immobilized b-Gβ1γ2 at room temperature for 15-20 minutes.

Molecule: O=C(O)c1cccc2cccc(-c3c4ccc(=O)c(O)c-4oc4c(O)c(O)ccc34)c12 [Compound M119K]
- effect on fMLP-induced Ca^2+ increase [1]: block
- effect on fMLP-induced activation of ERK1 and ERK2 [2]: without interfering

Molecule: O=C1c2ccccc2C(=O)c2c(Nc3cc4c5c(ccc6c7ccc8c9c(cc(Nc%10cccc%11c%10C(=O)c%10ccccc%10C%11=O)c(c3c56)c97)-c3ccccc3C8=O)C(=O)c3ccccc3-4)cccc21 [Compound M231]
- IC50 (Gβ1γ2; Table 8, read-out: IC50): 16 µM
- IC50 (Gβ1γ2; Table 18, compounds identified in Elisa screen, read-out: IC50): 16 µM
- IC50 (Gβ1γ2; Table 19, read-out: ELISA): 27 µM
- IC50 (PLCβ2; Table 19, effector IC50, read-out: PLCb2): 167 µM
- IC50 (PI3Kγ): 13.5 µM
- PLCb3 (PLCβ3): NE

Molecule: C[C@@H](NC(=O)[C@@H](N)Cc1ccc(O)cc1)C(=O)NCC(=O)N(C)[C@@H](Cc1ccccc1)C(=O)NCCO [DAMGO, [D-Ala^2, N-Me-Phe^4, Gly^5-ol]-enkephalin]
- increase in total IP compared to control [3]: 4 fold
- ED50 of opioid agonist alone [4]: 0.07 nmol

Molecule: C[C@H](NC(=O)[C@H](CS)NC(=O)[C@@H](N)CO)C(=O)N[C@@H](CCCNC(=N)N)C(=O)N[C@@H](Cc1ccccc1)C(=O)N[C@@H](Cc1ccccc1)C(=O)NCC(=O)N[C@H](C(=O)N1CCC[C@H]1C(=O)NCC(=O)N[C@@H](CS)C(=O)N[C@H](C(=O)O)[C@@H](C)O)[C@@H](C)O [SCAR]
- promotion/acceleration of heterotrimer dissociation (Fαi1GDPβ1γ2 heterotrimer): could not promote dissociation of a preformed heterotrimer; also recorded: the same as the intrinsic rate

Molecule: CC[C@H](C)[C@H](NC(=O)[C@H](CC(N)=O)NC(=O)[C@H](CC(C)C)NC(=O)[C@H](C)NC(=O)[C@H](C)NC(=O)[C@H](CCCNC(=N)N)NC(=O)[C@@H](NC(=O)[C@@H](N)CO)[C@@H](C)CC)C(=O)N[C@@H](CC(C)C)C(=O)NCC(=O)N[C@@H](Cc1ccc(O)cc1)C(=O)N1CCC[C@H]1C(=O)N[C@@H](CC(=O)O)C(=O)N[C@@H](Cc1ccc(O)cc1)C(=O)N[C@@H](CC(=O)O)C(=O)O [SIRK(Lys4Ala)]
- promotion/acceleration of heterotrimer dissociation (Fαi1GDPβ1γ2 heterotrimer): failed to accelerate heterotrimer dissociation

Molecule: Nc1ccc(Nc2cc(S(=O)(=O)O)c(N)c3c2C(=O)c2ccccc2C3=O)cc1 [drawing 55]
- IC50 (PLCβ2; Table 3, read-out: PLCβ2 IC50): 75 µM

Molecule: Nc1cccc(Nc2cc(S(=O)(=O)O)c(N)c3c2C(=O)c2ccccc2C3=O)c1 [drawing 56]
- IC50 (PLCβ2; Table 3, read-out: PLCβ2 IC50): 14 µM

Molecule: Nc1ccc(-c2ccc(Nc3cc(S(=O)(=O)O)c(N)c4c3C(=O)c3ccccc3C4=O)cc2)c(S(=O)(=O)O)c1 [drawing 57]
- IC50 (PLCβ2; Table 3, read-out: PLCβ2 IC50): > 30 µM

Molecule: COc1ccc2c(c1)c(CC(=O)O)c(C)n2C(=O)c1ccc(Cl)cc1 [indomethacin]
- effect on carrageenan-induced paw edema ([5]; i.p. 1 h before carrageenan, gallein 100 mg/kg, indomethacin 2.5 mg/kg, result in words): sharply reduced
- reduction of exudate volume ([5]; i.p. pretreatment, 2 h after carrageenan): approximately 75%

Molecule: COC(=O)/C=C/C(=O)N[C@@H]1CC[C@@]2(O)[C@H]3Cc4ccc(O)c5c4[C@@]2(CCN3CC2CC2)[C@H]1O5 [β-FNA, β-funaltrexamine]
- effect on DAMGO- and morphine-dependent IP production [3]: attenuated

Molecule: SIRKALNILAYPDYD [SIRK(GIyIOAIa)]
- IC50 (Gαi1-Gβ1γ2 interaction): ~80 µM
- promotion/acceleration of heterotrimer dissociation (Fαi1GDPβ1γ2 heterotrimer): could still accelerate heterotrimer dissociation
